Reference: patent US20260070887A1 (Shenzhen Zhongge Biological Technology Co., Ltd., priority 2022, published 2026)
pIC50: −log10 of the molar value. Like-named read-outs stand apart in the source and are kept apart here.

What was measured:
OVCAR-3 cells = test: OVCAR-3 cell proliferation (Cell Titer-Glo, 10 days); assay type: cell-based, human
In short: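 IC50 was fitted by nonlinear regression of percent inhibition versus the 0.1% DMSO control. Luminescence was read with Cell Titer-Glo after 10 days of co-culture of logarithmic-phase cells (400/well) with compound at 0.12 nM–10 μM final, in medium with 20% fetal bovine serum and 0.01 mg/mL insulin.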

PK study in ICR mice = assay type: in vivo, mouse; conditions: plasma, route and dose not given
Experimental: 6 ICR mice (male/female) were divided into two groups, administered orally and intravenously, respectively, with 3 mice/group. The mice were fasted for 10-14 hours prior to dosing with free access to water.
The test compound was weighed according to the administration dose, and prepared into a dose formulation at appropriate concentrations (for rats and mice, intravenous and oral administration at a volume of 5 mL/kg and 10 mL/kg, respectively), wherein the intravenous injection was a clear solution, and the oral preparation was a clear solution or a homogeneous suspension.
Animals were dosed by intravenous injection and oral gavage, and blood samples were collected at 0.033, 0.083, 0.25, 0.5, 1, 2, 4, 8, and 24 h after intravenous administration and 0.083, 0.25, 0.5, 1, 2, 4, 6, 8, and 24 h after oral administration. Whole blood was centrifuged at 6800 g for 6 min at 4° C. and the top plasma was stored in a −80° C. freezer for later analysis.
The DMSO stock solution of the test compound was diluted into a series of working solutions with a methanol or an acetonitrile solution, and added to a blank plasma matrix, and standard curves were generated and quality control samples were prepared. An appropriate volume of the plasma sample was taken and a suitable multiple of methanol or acetonitrile containing an internal standard was added for protein precipitation based on the response. After centrifugation of all samples at 18000 g for 10 min at 4° C., an appropriate amount of supernatant was taken for LC-MS/MS injection analysis.
Drug concentration-time curves in plasma were plotted according to test concentrations, and pharmacokinetic parameters were calculated using noncompartmental analysis by WinNonlin software, including: half-life (T½), area under the concentration-time curve from time zero to time t (AUCO-t), clearance (CL), volume of distribution at steady state (Vss) and bioavailability (F), with some of the test results shown in Table 4.

KIF18A = KIF18A (Homo sapiens (Human), UniProt Q8NI77); test: KIF18A ATPase activity under tubulin stimulation (ADP-Glo assay); assay type: biochemical; conditions: KIF18A 30 nM, ATP 150 μM, pig microtubules
[1] = both sexes, mouse, read-out: AUC
[2] = both sexes, mouse, read-out: Cmax

KIF18A, sequence (Q8NI77 whole entry): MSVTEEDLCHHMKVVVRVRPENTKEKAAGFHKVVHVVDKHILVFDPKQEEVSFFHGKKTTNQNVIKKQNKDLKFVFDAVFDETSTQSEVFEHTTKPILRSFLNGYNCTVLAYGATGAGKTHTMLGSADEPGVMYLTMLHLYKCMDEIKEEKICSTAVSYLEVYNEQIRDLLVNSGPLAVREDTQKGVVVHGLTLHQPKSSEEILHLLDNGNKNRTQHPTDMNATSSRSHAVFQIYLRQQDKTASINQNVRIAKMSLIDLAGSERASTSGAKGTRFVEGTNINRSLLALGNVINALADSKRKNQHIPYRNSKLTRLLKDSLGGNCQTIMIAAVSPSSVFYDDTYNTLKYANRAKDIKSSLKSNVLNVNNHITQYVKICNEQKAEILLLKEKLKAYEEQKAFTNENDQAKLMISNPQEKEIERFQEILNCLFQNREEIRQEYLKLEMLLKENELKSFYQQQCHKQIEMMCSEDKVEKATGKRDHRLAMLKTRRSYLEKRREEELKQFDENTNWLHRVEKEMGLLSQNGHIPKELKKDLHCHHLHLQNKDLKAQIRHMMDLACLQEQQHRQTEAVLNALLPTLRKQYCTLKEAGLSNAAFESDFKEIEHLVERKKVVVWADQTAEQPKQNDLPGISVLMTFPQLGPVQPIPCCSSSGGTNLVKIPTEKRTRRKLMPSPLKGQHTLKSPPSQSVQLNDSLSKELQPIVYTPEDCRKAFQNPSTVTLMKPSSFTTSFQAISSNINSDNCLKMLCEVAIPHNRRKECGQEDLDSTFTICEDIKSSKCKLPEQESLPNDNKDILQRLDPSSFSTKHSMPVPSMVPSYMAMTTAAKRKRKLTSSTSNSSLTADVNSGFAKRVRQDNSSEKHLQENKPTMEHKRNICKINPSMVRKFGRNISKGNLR
KIF18A, sequence (P02550 whole entry partner): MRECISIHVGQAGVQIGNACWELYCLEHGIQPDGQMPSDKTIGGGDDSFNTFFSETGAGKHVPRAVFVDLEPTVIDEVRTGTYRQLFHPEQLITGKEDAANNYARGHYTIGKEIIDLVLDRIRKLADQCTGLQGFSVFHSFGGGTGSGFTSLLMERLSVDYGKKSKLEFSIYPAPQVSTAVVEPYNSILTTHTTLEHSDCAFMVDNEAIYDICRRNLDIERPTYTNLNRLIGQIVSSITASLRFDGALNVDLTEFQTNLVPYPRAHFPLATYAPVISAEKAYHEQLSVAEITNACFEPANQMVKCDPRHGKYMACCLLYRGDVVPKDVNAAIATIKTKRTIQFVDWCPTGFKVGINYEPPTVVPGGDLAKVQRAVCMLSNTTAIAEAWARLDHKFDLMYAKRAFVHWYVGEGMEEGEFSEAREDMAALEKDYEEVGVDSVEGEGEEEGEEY
KIF18A, sequence (P02554 whole entry partner): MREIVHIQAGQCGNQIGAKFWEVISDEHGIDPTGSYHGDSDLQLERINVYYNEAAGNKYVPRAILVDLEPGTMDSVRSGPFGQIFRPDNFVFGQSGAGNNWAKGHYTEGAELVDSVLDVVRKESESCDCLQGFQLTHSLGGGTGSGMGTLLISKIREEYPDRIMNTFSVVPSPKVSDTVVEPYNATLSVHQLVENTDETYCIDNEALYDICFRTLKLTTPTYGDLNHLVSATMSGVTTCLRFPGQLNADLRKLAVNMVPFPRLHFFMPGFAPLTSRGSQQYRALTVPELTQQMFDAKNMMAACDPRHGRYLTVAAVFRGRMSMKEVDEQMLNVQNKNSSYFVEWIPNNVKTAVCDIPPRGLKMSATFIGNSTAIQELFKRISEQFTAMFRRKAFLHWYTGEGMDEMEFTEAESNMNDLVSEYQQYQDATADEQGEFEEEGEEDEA

Compound | pIC50 (OVCAR-3 cells) | AUC (PK study in ICR mice) | Cmax (PK study in ICR mice) | pIC50 (KIF18A) | pIC50 (OVCAR-3 cells; Homo sapiens, OVCAR-3, 240 h) | AUC (PK study in ICR mice; [1]) | Cmax (PK study in ICR mice; [2])
O=C(Nc1ccc(F)c2c1nc1n2CCOC1)c1ccc(NS(=O)(=O)CCO)cc1N1CCC(=C(F)F)CC1 [Example 323, 2-(4-(difluoromethylene)piperidin-1-yl)-N-(6-fluoro-3,4-dihydro-1H-benzo[4,5]imidazo[2,1-c][1,4]oxazin-9-yl)-4-((2-hydroxyethyl)sulfonamide)benzamide] | ≥ 7.30 | 4113 ng·h/mL | 762 ng/mL | ≥ 7.30 | – | – | –
CNc1cc(NS(=O)(=O)CCO)cc(N2CCC3(CC2)CC3)c1C(=O)Nc1ccc(OC)c(N2CCC(F)(F)CC2)n1 [Example 491, N-(6-(4,4-difluoropiperidin-1-yl)-5-methoxypyridin-2-yl)-4-((2-hydroxyethyl)sulfonamido)-2-(methylamino)-6-(6-azaspiro[2.5]oct-6-yl)benzamide] | – | – | – | 6.30 to 7.30 | ≥ 7.30 | 24800 ng·h/mL | 2300 ng/mL
O=C(Nc1ccc(OC(F)F)c2c1cc1n2CCC(F)(F)C1)c1ccc(NS(=O)(=O)CCO)cc1N1CCC2(CC1)CC2 [Example 583] | – | – | – | 6.30 to 7.30 | ≥ 7.30 | 43300 ng·h/mL | 4410 ng/mL
O=C(Nc1cccc2c1nc1n2CCOC1)c1ccc(NS(=O)(=O)CCO)cc1N1CCC(=C(F)F)CC1 [Example 322, 2-(4-(difluoromethylene)piperidin-1-yl)-N-(3,4-dihydro-1H-benzo[4,5]imidazo[2,1-c][1,4]oxazin-9-yl)-4-((2-hydroxyethyl)sulfonamido)benzamide] | – | – | – | ≥ 7.30 | ≥ 7.30 | 12400 ng·h/mL | 2420 ng/mL
CCS(=O)(=O)Nc1ccc(C(=O)Nc2cccc3c2cc2n3CCC(F)(F)C2O)c(N2CCC3(CC2)CC3)c1 (stereo not drawn) [Compound 382, N-(8,8-difluoro-9-hydroxy-6,7,8,9-tetrahydropyridino[1,2-a]indol-1-yl)-4-ethyl sulfonamido-2-(6-azaspiro[2.5]octan-6-yl)benzamide] | ≥ 7.30 | – | – | ≥ 7.30 | – | – | –
CCNC(=O)c1ccc(NC(=O)c2ccc(NS(=O)(=O)CCO)cc2N2CCC(=C(F)F)CC2)c2cc3n(c12)CC(C)(C)OC3 [Example 528] | – | – | – | 6.30 to 7.30 | ≥ 7.30 | – | –
O=C(Nc1cc(F)cc2c1nc1n2CCOC1)c1ccc(NS(=O)(=O)CCO)cc1N1CCC2(CC1)CC2 [Example 368, N-(7-fluoro-3,4-dihydro-1H-benzo[4,5]imidazo[2,1-c][1,4]oxazin-9-yl)-4-((2-hydroxyethyl)sulfonamido)-2-(6-azaspiro[2.5]oct-6-yl)benzamide] | – | – | – | ≥ 7.30 | ≥ 7.30 | – | –
CC1(C)Cn2c(cc3c(NC(=O)c4ccc(NS(=O)(=O)CCO)cc4N4CCC(=C(F)F)CC4)ccc(OC(F)(F)F)c32)CO1 [Example 574] | – | – | – | 6.30 to 7.30 | 6.30 to 7.30 | – | –
CC(C)Oc1ccc(NC(=O)c2ccc(NS(=O)(=O)CCO)cc2N2CCC(=C(F)F)CC2)c2cc3n(c12)CC(C)(C)OC3 [Example 532, 2-(4-(difluoromethylene)piperidin-1-yl)-4-((2-hydroxyethyl)sulfonamido)-N-(6-isopropoxy-3,3-dimethyl-3,4-dihydro-1H-[1,4]oxazinyl[4,3-a]indol-9-yl)benzamide] | 6.30 to 7.30 | – | – | 6.30 to 7.30 | – | – | –
O=C(Nc1ccc(OC(F)(F)F)c2c1cc1n2CCC(F)(F)C1)c1ccc(NS(=O)(=O)CCO)cc1N1CCC2(CC1)CC2 [Example 582] | – | – | – | ≥ 7.30 | 6.30 to 7.30 | – | –
[2H]C([2H])([2H])Oc1ccc(NC(=O)c2ccc(NS(=O)(=O)CCO)cc2N2CCC3(CC2)CC3)c2cc3n(c12)CC(C)(C)OC3 [Example 575] | – | – | – | 6.30 to 7.30 | ≥ 7.30 | – | –
[2H]C([2H])([2H])OC1c2cc3c(NC(=O)c4ccc(NS(=O)(=O)CCO)cc4N4CCC(=C(F)F)CC4)cccc3n2CCC1(F)F (single isomer, unassigned) [Compound 386-P1, N-(8,8-difluoro-9-(methoxy-d3)-6,7,8,9-tetrahydropyridino[1,2-a]indol-1-yl)-2-(4-(difluoromethylene)piperidin-1-yl)-4-((2-hydroxyethyl)sulfonamido)benzamide] | 5.30 to 6.30 | – | – | 5.30 to 6.30 | – | – | –
CCS(=O)(=O)Nc1ccc(C(=O)Nc2cccc3c2cc2n3CCCC2O)c(N2CCC3(CC2)CC3)c1 (single isomer, unassigned) [Example 373-P2, 4-(ethylsulfonamido)-N-(9-hydroxy-6,7,8,9-tetrahydropyridino[1,2-a]indol-1-yl)-2-(6-azaspiro[2.5]oct-6-yl)benzamide] | 6.30 to 7.30 | – | – | 6.30 to 7.30 | – | – | –
O=C(Nc1cc(F)cc2c1cc1n2CCOC1)c1ccc(NS(=O)(=O)CCO)cc1N1CCC2(CC1)CC2 [Example 366, N-(7-fluoro-3,4-dihydro-1H-[1,4]oxazino[4,3-a]indol-9-yl)-4-((2-hydroxyethyl)sulfonamido)-2-(6-azaspiro[2.5]oct-6-yl)benzamide] | – | – | – | ≥ 7.30 | ≥ 7.30 | – | –
CCOc1ccc(NC(=O)c2ccc(NS(=O)(=O)CCO)cc2N2CCC3(CC2)CC3)c2cc3n(c12)CC(C)(C)OC3 [Example 535, N-(6-ethoxy-3,3-dimethyl-3,4-dihydro-1H-[1,4]oxazino[4,3-a]indol-9-yl)-4-((2-hydroxyethyl)sulfonamido)-2-(6-azaspiro[2.5]octan-6-yl)benzamide] | – | – | – | 6.30 to 7.30 | ≥ 7.30 | 101000 ng·h/mL | 8370 ng/mL
CCS(=O)(=O)Nc1ccc(C(=O)Nc2cccc3c2cc2n3CCCC2O)c(N2CCC3(CC2)CC3)c1 (stereo not drawn) [Example 373, 4-(ethylsulfonamido)-N-(9-hydroxy-6,7,8,9-tetrahydropyridino[1,2-a]indol-1-yl)-2-(6-azaspiro[2.5]oct-6-yl)benzamide] | – | – | – | ≥ 7.30 | ≥ 7.30 | – | –
N#Cc1ccc(NC(=O)c2ccc(NS(=O)(=O)CCO)cc2N2CCC3(CC2)CC3)c2cc3n(c12)CCC(F)(F)C3O (stereo not drawn) [Example 438, N-(4-cyano-8,8-difluoro-9-hydroxy-6,7,8,9-tetrahydropyridino[1,2-a]indol-1-yl)-4-((2-hydroxyethyl)sulfonamido)-2-(6-azaspiro[2.5]oct-6-yl)benzamide] | – | – | – | 6.30 to 7.30 | ≥ 7.30 | – | –
Cn1cnc(-c2ccc(NC(=O)c3ccc(NS(=O)(=O)CCO)cc3N3CCC4(CC3)CC4)c3cc4n(c23)CC(C)(C)OC4)c1 [Example 529] | – | – | – | 6.30 to 7.30 | ≥ 7.30 | – | –
O=C(Nc1ccc(F)c2c1OCCN2CC1CC1)c1ccc(NS(=O)(=O)CCO)cc1N1CCC2(CC1)CC2 [Example 294, N-(4-(cyclopropylmethyl)-5-fluoro-3,4-dihydro-2H-benzo[b][1,4]oxazin-8-yl)-4-((2-hydroxyethyl)sulfonamido)-2-(6-azaspiro[2.5]oct-6-yl)benzamide] | – | – | – | ≥ 7.30 | 5.30 to 6.30 | – | –
